Data from ChEMBL document CHEMBL1201862, “PubChem BioAssay data set” (2004).
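96-well plates; 48 h exposure; 5 concentrations. Endpoints by linear interpolation between flanking doses. Not reached: highest tested concentration assigned. At the GI50, growth is halved.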 The source made the active and inactive calls. Cut-off read from the data, not from the text of the source: active = GI50 up to about 1.1 µM and inactive = higher.

How the values were obtained:
Assay in all cases: NCI tumour cell line growth inhibition, 48 h
[1] = tested on: ACHN
[2] = tested on: MDA-MB-435
[3] = tested on: SK-MEL-5
[4] = tested on: K562
[5] = tested on: SF-539
[6] = tested on: HOP-62
[7] = tested on: U-251
[8] = tested on: RPMI-8226
[9] = tested on: HCT-116
[10] = tested on: TK-10
[11] = tested on: SK-MEL-2
[12] = tested on: Hs-578T
[13] = tested on: A549
[14] = tested on: CCRF-CEM
[15] = tested on: OVCAR-3
[16] = tested on: PC-3
[17] = tested on: 786-0
[18] = tested on: Malme-3M
[19] = tested on: SN12C
[20] = tested on: MDA-N

Row | SMILES | GI50 [1] | GI50 [2] | GI50 [3] | GI50 [4] | GI50 [5] | GI50 [6] | GI50 [7] | GI50 [8] | GI50 [9] | GI50 [10] | GI50 [11] | GI50 [12] | GI50 [13] | GI50 [14] | GI50 [15] | GI50 [16] | GI50 [17] | GI50 [18] | GI50 [19] | GI50 [20]
1 | CCN(CC)C(=O)Cn1c2ccccc2[n+]2cc(N)ccc12 | > 100 µM (inactive) | > 100 µM (inactive) | > 100 µM (inactive) | > 100 µM (inactive) | > 100 µM (inactive) | > 100 µM (inactive) | > 100 µM (inactive) | > 100 µM (inactive) | > 100 µM (inactive) | > 100 µM (inactive) | > 100 µM (inactive) | > 100 µM (inactive) | > 100 µM (inactive) | > 100 µM (inactive) | > 100 µM (inactive) | > 100 µM (inactive) | > 100 µM (inactive) | > 100 µM (inactive) |  | 
2 | Cn1c(=O)c2[nH]c(-n3nc(-c4ccccc4)cc3N)nc2n(C)c1=O | 3.66 µM (inactive) | 18 µM (inactive) | 5.38 µM (inactive) | 6.46 µM (inactive) | 5.08 µM (inactive) | 12.5 µM (inactive) | 6.78 µM (inactive) | 12.6 µM (inactive) | 6.49 µM (inactive) | 12.4 µM (inactive) | 14.6 µM (inactive) |  | 5.78 µM (inactive) | 2.64 µM (inactive) | 5.35 µM (inactive) | 19.7 µM (inactive) | 6.18 µM (inactive) | 13.7 µM (inactive) | 4.6 µM (inactive) | 11.7 µM (inactive)
3 | COc1ccc(NC(C)=O)cc1N1C(=O)/C(=C\c2cccc(Oc3ccccc3)c2)SC1c1ccccc1 (centres undefined) | 31.3 µM (inactive) | 23.3 µM (inactive) | 30.5 µM (inactive) | 19.8 µM (inactive) |  | 34.3 µM (inactive) | 25.8 µM (inactive) | 17.4 µM (inactive) | 11.6 µM (inactive) | 49.3 µM (inactive) | 30.5 µM (inactive) |  | 40.4 µM (inactive) | 10.3 µM (inactive) | 21.8 µM (inactive) | 21.7 µM (inactive) | 24.3 µM (inactive) | 65.6 µM (inactive) | 20.4 µM (inactive) | 26.2 µM (inactive)
4 | Nn1nnc2ccccc21 | > 100 µM (inactive) | > 100 µM (inactive) | > 100 µM (inactive) | > 100 µM (inactive) |  | > 100 µM (inactive) | > 100 µM (inactive) | > 100 µM (inactive) | > 100 µM (inactive) | > 100 µM (inactive) |  |  | > 100 µM (inactive) | > 100 µM (inactive) | > 100 µM (inactive) | > 100 µM (inactive) | > 100 µM (inactive) | > 100 µM (inactive) | > 100 µM (inactive) | 
5 | O=C(Nc1ccc(Cl)cc1)c1cc2c(cc1Cl)SC(NNCCO)=NS2(=O)=O | > 100 µM (inactive) | > 100 µM (inactive) | > 100 µM (inactive) | 27.9 µM (inactive) | > 100 µM (inactive) | > 100 µM (inactive) | > 100 µM (inactive) | > 100 µM (inactive) | > 100 µM (inactive) | > 100 µM (inactive) | > 100 µM (inactive) | > 100 µM (inactive) |  | > 100 µM (inactive) |  | > 100 µM (inactive) | > 100 µM (inactive) |  |  | 
6 | CNc1nnc(CCCCCCCCc2nnc(NC)o2)o1 | > 100 µM (inactive) | 63.8 µM (inactive) | > 100 µM (inactive) | 31.9 µM (inactive) | > 100 µM (inactive) | 35.3 µM (inactive) | 22.2 µM (inactive) |  | 20.3 µM (inactive) | > 100 µM (inactive) | > 100 µM (inactive) |  | > 100 µM (inactive) | 16.2 µM (inactive) | 25.9 µM (inactive) | > 100 µM (inactive) | 21.1 µM (inactive) |  | > 100 µM (inactive) | > 100 µM (inactive)
7 | Cc1cc(C)c(C#N)c(SC(=S)NC(=O)c2ccc(Cl)cc2)n1 | > 100 µM (inactive) | > 100 µM (inactive) | > 100 µM (inactive) |  |  | > 100 µM (inactive) | > 100 µM (inactive) | > 100 µM (inactive) | > 100 µM (inactive) | > 100 µM (inactive) | > 100 µM (inactive) |  | > 100 µM (inactive) | > 100 µM (inactive) | > 100 µM (inactive) | > 100 µM (inactive) | > 100 µM (inactive) |  |  | 
8 | O=C(c1ccccc1)C1OC12C(=O)Nc1c(Cl)cc(Cl)cc12 (centres undefined) | 23.8 µM (inactive) |  | > 74.3 µM (inactive) | 15.3 µM (inactive) | 45.8 µM (inactive) | > 55.2 µM (inactive) | 41.5 µM (inactive) | 47.5 µM (inactive) | 23.7 µM (inactive) | > 94.4 µM (inactive) | 99.1 µM (inactive) |  | > 64.9 µM (inactive) | 8.65 µM (inactive) | 60.3 µM (inactive) |  | 16.3 µM (inactive) | > 74.5 µM (inactive) | 27.2 µM (inactive) | 
9 | O=[N+]([O-])c1ccc2nnnn2c1 | 10.7 µM (inactive) | 11.5 µM (inactive) | 18 µM (inactive) | 3.18 µM (inactive) | 14.9 µM (inactive) | 31 µM (inactive) | 23.2 µM (inactive) |  | 4.18 µM (inactive) | 48.3 µM (inactive) | 23.3 µM (inactive) | 5.38 µM (inactive) | 45.3 µM (inactive) |  | 13.5 µM (inactive) | > 100 µM (inactive) | 22.2 µM (inactive) | 20.9 µM (inactive) | 19.8 µM (inactive) | 
10 | CC(CO)(CBr)COC(=O)c1cc(Br)c(N)c(Br)c1 (centres undefined) | 73.8 µM (inactive) | 98.9 µM (inactive) | > 100 µM (inactive) | > 100 µM (inactive) | > 100 µM (inactive) | 32.4 µM (inactive) | 54 µM (inactive) | > 100 µM (inactive) | 94 µM (inactive) | 43 µM (inactive) | > 100 µM (inactive) |  | > 100 µM (inactive) | > 100 µM (inactive) | > 100 µM (inactive) | > 100 µM (inactive) | 50.1 µM (inactive) |  | > 100 µM (inactive) | 59.7 µM (inactive)
11 | Cc1cccc(-c2cc(=O)c3cc(C)c(C)c(C(=O)O)c3o2)c1 | > 100 µM (inactive) |  | > 100 µM (inactive) | > 100 µM (inactive) | > 100 µM (inactive) | > 100 µM (inactive) | > 100 µM (inactive) | > 100 µM (inactive) | > 100 µM (inactive) | > 100 µM (inactive) | > 100 µM (inactive) |  | > 100 µM (inactive) | > 100 µM (inactive) | > 100 µM (inactive) |  | > 100 µM (inactive) | > 100 µM (inactive) | > 100 µM (inactive) | 
12 | CN(C(=O)c1cccs1)C(=S)N1CCN(c2ccccc2)CC1 | > 100 µM (inactive) | > 100 µM (inactive) | > 100 µM (inactive) | > 100 µM (inactive) |  |  | > 100 µM (inactive) | 52.2 µM (inactive) |  | > 100 µM (inactive) | > 100 µM (inactive) | 42.7 µM (inactive) | > 100 µM (inactive) | > 100 µM (inactive) | > 100 µM (inactive) |  | > 100 µM (inactive) | > 100 µM (inactive) | > 100 µM (inactive) | > 100 µM (inactive)
13 | O=C(Nc1cc2c(=O)oc3ccccc3c2oc1=O)c1cccnc1 | 50 µM (inactive) | > 100 µM (inactive) | > 100 µM (inactive) | > 100 µM (inactive) | > 100 µM (inactive) |  | 35.6 µM (inactive) |  | > 100 µM (inactive) | > 100 µM (inactive) | 83.2 µM (inactive) |  | > 100 µM (inactive) | > 100 µM (inactive) | > 100 µM (inactive) | > 100 µM (inactive) | > 100 µM (inactive) | > 100 µM (inactive) | > 100 µM (inactive) | > 100 µM (inactive)
14 | COc1ccc2nc3cc(Cl)ccc3c(SCC(=O)Nc3ccccc3-c3ccccc3NC(=O)CSc3c4ccc(Cl)cc4nc4ccc(OC)cc34)c2c1 | > 100 µM (inactive) |  | > 100 µM (inactive) | > 100 µM (inactive) | > 100 µM (inactive) | > 100 µM (inactive) | > 100 µM (inactive) | > 100 µM (inactive) | > 100 µM (inactive) | > 100 µM (inactive) | > 100 µM (inactive) |  | > 100 µM (inactive) | > 100 µM (inactive) | > 100 µM (inactive) |  | > 100 µM (inactive) | > 100 µM (inactive) | > 100 µM (inactive) | 
15 | CC(C)[C@H](O)C(=O)N[C@H]1Cc2ccc3c(c2)[C@]24C5=C(N=C(O5)[C@H](C(C)C)NC1=O)c1nc(Cl)c(o1)-c1c(Cl)[nH]c5cccc(c15)-c1cccc2c1N[C@H]4O3 | 0.0469 µM (active) |  | 0.0103 µM (active) | 0.00427 µM (active) | 0.00403 µM (active) | 2.33 µM (inactive) | 0.00547 µM (active) |  | 0.00339 µM (active) | 0.0818 µM (active) |  | 0.00256 µM (active) | 0.0148 µM (active) | 0.00103 µM (active) | 0.00253 µM (active) | 0.00393 µM (active) | 0.00535 µM (active) | 0.00643 µM (active) |  | 0.00162 µM (active)
16 | O=C(Cc1ccc(O)c(O)c1)NCc1c[nH]c2ccccc12 |  |  | 43.3 µM (inactive) | 38.5 µM (inactive) | 43.8 µM (inactive) | 17.8 µM (inactive) |  | 18.1 µM (inactive) | 32.4 µM (inactive) | 16.4 µM (inactive) | > 100 µM (inactive) | > 100 µM (inactive) | 64.7 µM (inactive) | 6.95 µM (inactive) | 42.3 µM (inactive) | 47.1 µM (inactive) | 33.7 µM (inactive) | 23.1 µM (inactive) |  | 
